# Data published in US10364216B2, “Alkenyl sulfate ester or salt thereof” (Kao Corporation, priority 2013, dated 2019).
# Counter-ions that a name gives are not always drawn.
# Key:
# [1] = Evaluation of sweetness (3)/(4): sweetness intensity over time against sucrose standard solutions; format: in vivo, human
# Experimental: (§1) To seven examiners, 4 kinds of 10 mL aqueous sucrose standard solutions (2.5, 5.0, 7.5 and 10.0 wt %) were presented. The examiners kept each of the solutions in their mouth for 5 seconds or so, and then spat the solution out, and were asked to consider the sweetness intensity at that time (0 to 15) to be 2.5, 5, 7.5 and 10, respectively. Next, the examiners kept 10 mL solution of 10 mM trans-3-octenyl sulfate in their mouth for 5 seconds or so, and then spat the solution out, and compared the sweetness intensity at that time with that of the aqueous sucrose standard solution, and evaluated the sweetness intensity with a number in a range of 0 to 15. Then, the examiners kept 10 mL pure water for 5 minutes at an interval of 30 seconds, and then spat the solution out, and evaluated the sweetness intensity at that time in the same manner.
# as §1, with “four” for “4”, “cis-3-octenyl” for “trans-3-octenyl”, “water in their mouth” for “water”
# [2] = Evaluation of sweetness (1)/(2): presence or absence of sweetness judged by examiners; format: in vivo, human
# Experimental: Trans-3-octenyl sulfate was dissolved in water to be 1 wt %, which was taken as a test sample. Six examiners kept 50 μL of the prepared test sample in their mouth, and then drunk some water, and judged for presence or absence of sweetness.
# Cis-3-octenyl sulfate was dissolved in water to 1 wt %, which was taken as a test sample. Four examiners kept 50 μL of the prepared test sample in their mouth, and then drunk some water, and judged presence or absence of sweetness.
# [3] = 1 wt % in water, 50 μL kept in mouth, then water (13 ml), six examiners (trans), four examiners (cis)
compound,measurement,setting,value
CCCC/C=C/CCOS(=O)(=O)O [trans-3-octenyl sulfate],Examiners who recognized the sweetness by virtue of intake of water,"[1]; 10 mL of 10 mM solution, then pure water every 30 seconds",Seven out of the seven
same,Duration of sweetness,"[1]; 10 mL of 10 mM solution, then pure water every 30 seconds for 5 minutes",the sweetness lasted for a certain time
same,Sweetness intensity (mean),"[1]; Time 0 minute, 10 mL of 10 mM solution kept 5 seconds, scale 0 to 15 vs sucrose standards, seven examiners",0.0
same,Sweetness intensity (mean),"[1]; Time 0.5 minute, on keeping 10 mL pure water, after 10 mM solution, scale 0 to 15",1.7
same,Sweetness intensity (mean),"[1]; Time 1 minute, on keeping 10 mL pure water, after 10 mM solution, scale 0 to 15",3.6
same,Sweetness intensity (mean),"[1]; Time 1.5 minute, on keeping 10 mL pure water, after 10 mM solution, scale 0 to 15",3.9
same,Sweetness intensity (mean),"[1]; Time 2 minute, on keeping 10 mL pure water, after 10 mM solution, scale 0 to 15",3.6
same,Sweetness intensity (mean),"[1]; Time 2.5 minute, on keeping 10 mL pure water, after 10 mM solution, scale 0 to 15",3.0
same,Sweetness intensity (mean),"[1]; Time 3 minute, on keeping 10 mL pure water, after 10 mM solution, scale 0 to 15",2.1
same,Sweetness intensity (mean),"[1]; Time 3.5 minute, on keeping 10 mL pure water, after 10 mM solution, scale 0 to 15",1.1
same,Sweetness intensity (mean),"[1]; Time 4 minute, on keeping 10 mL pure water, after 10 mM solution, scale 0 to 15",0.8
same,Sweetness intensity (mean),"[1]; Time 4.5 minute, on keeping 10 mL pure water, after 10 mM solution, scale 0 to 15",0.5
same,Sweetness intensity (mean),"[1]; Time 5 minute, on keeping 10 mL pure water, after 10 mM solution, scale 0 to 15",0.6
same,No sweetness felt (number of examiners),[2]; [3],0
same,Sweetness felt (number of examiners),[2]; [3],6
same,Duration of sweetness,"[2]; 1 wt %, 50 μL, then water",the sweetness lasted for a certain time
